Measured values as given in paper PMC7419507, “In vitro Cas9-assisted editing of modular polyketide synthase genes to produce desired natural product derivatives” (Nature Communications, 2020).
Several values for one entry are separate records, joined by “and”; a condition that tells them apart may be missing. Equal values may be shown once.

What was measured:
[1] = Cytotoxicity assay (CellTiter-Glo, 72 h), SKOV-3; format: cell-based, human; details: human
Procedure, shortened: (§1)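 Cells were seeded at 1000 cells/well and allowed 4 h at 37 °C, 5% CO2 before 2-fold compound dilutions in DMSO were added (0.5% final DMSO). After 72 h exposure, viability was read by CellTiter-Glo luminescence.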

[2] = system: human ovarian adenocarcinoma SKOV-3 cells; assay: Cytotoxicity assay (CellTiter-Glo, 72 h), SKOV-3; format: cell-based; details: raw replicate data
Procedure, shortened: as §1

[3] = Cytotoxicity assay (CellTiter-Glo, 72 h), Jurkat; format: cell-based; details: human, Jurkat cells (T lymphoma)
Procedure, shortened: as §1

T lymphoma Jurkat cells = assay: Cytotoxicity assay (CellTiter-Glo, 72 h), Jurkat; format: cell-based; details: raw data (replicates)
Procedure, shortened: as §1

FKBP12 and mTOR = molecular target: T1, FKBP12 and mTOR (Homo sapiens, UniProt P42345+P62942); assay: Fluoppi analysis: induction of FKBP12-mTOR complex formation in transfected HeLa cells; format: cell-based; details: for Foci intensity: raw data, one replicate per line
T1 construct: host or cells: HeLa cells
T1 sequence (P42345 2025-2114 limits assumed): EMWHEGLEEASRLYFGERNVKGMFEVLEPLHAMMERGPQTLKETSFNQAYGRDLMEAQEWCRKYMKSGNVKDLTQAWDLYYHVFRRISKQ
T1 sequence (P62942 whole entry): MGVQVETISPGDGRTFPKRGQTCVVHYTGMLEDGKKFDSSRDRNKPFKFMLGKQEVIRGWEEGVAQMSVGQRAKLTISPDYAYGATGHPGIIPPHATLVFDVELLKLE
Procedure, shortened: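 Complex formation read as fluorescent foci: foci intensity over total per-cell intensity, imaged (×20, 9 fields/well) after fixation and Hoechst stain, giving EC50. Cells: HeLa transiently expressing hAG-mTOR and Ash-FKBP12, exposed to compound concentrations for 1 h at 37 °C.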

COC1CC2CCC(C)C(O)(O2)C(=O)C(=O)N2CCCCC2C(=O)OC(C(C)CC2CCC(O)C(OC)C2)CCC(C)C=C(C)C(O)C(OC)C(=O)C(C)CC(C)C=CC=CC=C1C (stereo not shown) [Compound 16, 32-desketorapamycin]
viability at 72 h ([1]; SKOV-3 cells (ovarian adenocarcinoma), SKOV-3 cells, 72 h, read-out: Plateau level of cell viability in the dose-response curve): ~60% | viability at 72 h, 9.53674e-05 uM ([1]; SKOV-3 cells (ovarian adenocarcinoma), conc 9.53674e-5 uM, raw replicate data, read-out: SKOV3 viability (%)): 102% | viability at 72 h, 0.000190735 uM ([1]; SKOV-3 cells (ovarian adenocarcinoma), conc 0.000190735 uM, raw replicate data, read-out: SKOV3 viability (%)): 96.2% | viability at 72 h, 0.00038147 uM ([1]; SKOV-3 cells (ovarian adenocarcinoma), conc 0.00038147 uM, raw replicate data, read-out: SKOV3 viability (%)): 97.4% | viability at 72 h, 0.000762939 uM ([1]; SKOV-3 cells (ovarian adenocarcinoma), conc 0.000762939 uM, raw replicate data, read-out: SKOV3 viability (%)): 84.9% | viability at 72 h, 0.00152588 uM ([1]; SKOV-3 cells (ovarian adenocarcinoma), conc 0.00152588 uM, raw replicate data, read-out: SKOV3 viability (%)): 77.3% | viability at 72 h, 0.00305176 uM ([1]; SKOV-3 cells (ovarian adenocarcinoma), conc 0.00305176 uM, raw replicate data, read-out: SKOV3 viability (%)): 68.9% | viability at 72 h, 0.00610352 uM ([1]; SKOV-3 cells (ovarian adenocarcinoma), conc 0.00610352 uM, raw replicate data, read-out: SKOV3 viability (%)): 59% | viability at 72 h, 0.012207 uM ([1]; SKOV-3 cells (ovarian adenocarcinoma), conc 0.012207 uM, raw replicate data, read-out: SKOV3 viability (%)): 61.7% | viability at 72 h, 0.0244141 uM ([1]; SKOV-3 cells (ovarian adenocarcinoma), conc 0.0244141 uM, raw replicate data, read-out: SKOV3 viability (%)): 60% | viability at 72 h, 0.0488281 uM ([1]; SKOV-3 cells (ovarian adenocarcinoma), conc 0.0488281 uM, raw replicate data, read-out: SKOV3 viability (%)): 59.3% | viability at 72 h, 0.0976562 uM ([1]; SKOV-3 cells (ovarian adenocarcinoma), conc 0.0976562 uM, raw replicate data, read-out: SKOV3 viability (%)): 58.2% | viability at 72 h, 0.195312 uM ([1]; SKOV-3 cells (ovarian adenocarcinoma), conc 0.195312 uM, raw replicate data, read-out: SKOV3 viability (%)): 56.3% | viability at 72 h, 0.390625 uM ([1]; SKOV-3 cells (ovarian adenocarcinoma), conc 0.390625 uM, raw replicate data, read-out: SKOV3 viability (%)): 55.6% | viability at 72 h, 12.5 uM ([1]; SKOV-3 cells (ovarian adenocarcinoma), conc 12.5 uM, raw replicate data, read-out: SKOV3 viability (%)): 51.2% | viability at 72 h, 25 uM ([1]; SKOV-3 cells (ovarian adenocarcinoma), conc 25 uM, raw replicate data, read-out: SKOV3 viability (%)): 45.3% | viability at 72 h, 50 uM ([1]; SKOV-3 cells (ovarian adenocarcinoma), conc 50 uM, raw replicate data, read-out: SKOV3 viability (%)): 39.9% | viability at 72 h, 0.78125 uM ([1]; SKOV-3 ovarian adenocarcinoma cells, conc 0.78125 uM, raw replicate data, read-out: SKOV3 viability (%)): 57.3% | viability at 72 h, 1.5625 uM ([1]; SKOV-3 ovarian adenocarcinoma cells, conc 1.5625 uM, raw replicate data, read-out: SKOV3 viability (%)): 55% | viability at 72 h, 3.125 uM ([1]; SKOV-3 ovarian adenocarcinoma cells, conc 3.125 uM, raw replicate data, read-out: SKOV3 viability (%)): 57.8% | viability at 72 h, 6.25 uM ([1]; SKOV-3 ovarian adenocarcinoma cells, conc 6.25 uM, raw replicate data, read-out: SKOV3 viability (%)): 57% | SKOV3 viability (%) ([2]; conc 9.53674e-5 uM): 103.5% and 99.3% | SKOV3 viability (%) ([2]; conc 0.000190735 uM): 92.3% and 95.8% | SKOV3 viability (%) ([2]; conc 0.00038147 uM): 95.4% and 93.0% | SKOV3 viability (%) ([2]; conc 0.000762939 uM): 86.5% and 80.1% | SKOV3 viability (%) ([2]; conc 0.00152588 uM): 73.2% and 83.0% | SKOV3 viability (%) ([2]; conc 0.00305176 uM): 64.2% and 71.1% | SKOV3 viability (%) ([2]; conc 0.00610352 uM): 65.5% and 65.6% | SKOV3 viability (%) ([2]; conc 0.012207 uM): 60.5% and 55.5% | SKOV3 viability (%) ([2]; conc 0.0244141 uM): 61.8% and 57.1% | SKOV3 viability (%) ([2]; conc 0.0488281 uM): 55.9% and 56.4% | SKOV3 viability (%) ([2]; conc 0.0976562 uM): 56.0% and 58.1% | SKOV3 viability (%) ([2]; conc 0.195312 uM): 52.7% and 56.6% | SKOV3 viability (%) ([2]; conc 0.390625 uM): 55.9% and 59.7% | SKOV3 viability (%) ([2]; conc 0.78125 uM): 59.7% and 56.2% | SKOV3 viability (%) ([2]; conc 1.5625 uM): 58.0% and 59.2% | SKOV3 viability (%) ([2]; conc 3.125 uM): 56.1% and 56.8% | SKOV3 viability (%) ([2]; conc 12.5 uM): 53.9% and 55.3% | SKOV3 viability (%) ([2]; conc 25 uM): 51.8% and 53.0% | SKOV3 viability (%) ([2]; conc 50 uM): 34.7% and 38.6% | viability at 72 h ([3]; 72 h, read-out: Plateau level of cell viability in the dose-response curve): ~25% | viability at 72 h, 9.53674e-05 uM ([3]; conc 9.53674e-5 uM, raw data (replicates)): 104% | viability at 72 h, 0.000190735 uM ([3]; conc 0.000190735 uM, raw data (replicates)): 86.9% | viability at 72 h, 0.00038147 uM ([3]; conc 0.00038147 uM, raw data (replicates)): 91.3% | viability at 72 h, 0.000762939 uM ([3]; conc 0.000762939 uM, raw data (replicates)): 67.7% | viability at 72 h, 0.00152588 uM ([3]; conc 0.00152588 uM, raw data (replicates)): 56.5% | viability at 72 h, 0.00305176 uM ([3]; conc 0.00305176 uM, raw data (replicates)): 40.9% | viability at 72 h, 0.00610352 uM ([3]; conc 0.00610352 uM, raw data (replicates)): 34.9% | viability at 72 h, 0.012207 uM ([3]; conc 0.012207 uM, raw data (replicates)): 28.9% | viability at 72 h, 0.0244141 uM ([3]; conc 0.0244141 uM, raw data (replicates)): 30.6% | viability at 72 h, 0.0488281 uM ([3]; conc 0.0488281 uM, raw data (replicates)): 25.7% | viability at 72 h, 0.0976562 uM ([3]; conc 0.0976562 uM, raw data (replicates)): 24% | viability at 72 h, 0.195312 uM ([3]; conc 0.195312 uM, raw data (replicates)): 24.3% | viability at 72 h, 0.390625 uM ([3]; conc 0.390625 uM, raw data (replicates)): 25.2% | viability at 72 h, 0.78125 uM ([3]; conc 0.78125 uM, raw data (replicates)): 22.1% | viability at 72 h, 1.5625 uM ([3]; conc 1.5625 uM, raw data (replicates)): 21.9% | viability at 72 h, 3.125 uM ([3]; conc 3.125 uM, raw data (replicates)): 20.3% | viability at 72 h, 6.25 uM ([3]; conc 6.25 uM, raw data (replicates)): 20.4% | viability at 72 h, 12.5 uM ([3]; conc 12.5 uM, raw data (replicates)): 11.9% | viability at 72 h, 25 uM ([3]; conc 25 uM, raw data (replicates)): 2% | viability at 72 h, 50 uM ([3]; conc 50 uM, raw data (replicates)): 0.248% | Jurkat viability (%) (T lymphoma Jurkat cells; conc 9.53674e-5 uM): 101.4% and 98.2% | Jurkat viability (%) (T lymphoma Jurkat cells; conc 0.000190735 uM): 92.4% and 84.6% | Jurkat viability (%) (T lymphoma Jurkat cells; conc 0.00038147 uM): 90.4% and 75.5% | Jurkat viability (%) (T lymphoma Jurkat cells; conc 0.000762939 uM): 69.2% and 63.8% | Jurkat viability (%) (T lymphoma Jurkat cells; conc 0.00152588 uM): 59.9% and 53.6% | Jurkat viability (%) (T lymphoma Jurkat cells; conc 0.00305176 uM): 41.7% and 44.0% | Jurkat viability (%) (T lymphoma Jurkat cells; conc 0.00610352 uM): 34.2% and 31.7% | Jurkat viability (%) (T lymphoma Jurkat cells; conc 0.012207 uM): 27.6% and 27.9% | Jurkat viability (%) (T lymphoma Jurkat cells; conc 0.0244141 uM): 27.8% and 26.9% | Jurkat viability (%) (T lymphoma Jurkat cells; conc 0.0488281 uM): 23.6% and 25.9% | Jurkat viability (%) (T lymphoma Jurkat cells; conc 0.0976562 uM): 24.4% | Jurkat viability (%) (T lymphoma Jurkat cells; conc 0.195312 uM): 26.3% and 22.8% | Jurkat viability (%) (T lymphoma Jurkat cells; conc 0.390625 uM): 23.3% | Jurkat viability (%) (T lymphoma Jurkat cells; conc 0.78125 uM): 22.7% and 23.1% | Jurkat viability (%) (T lymphoma Jurkat cells; conc 1.5625 uM): 22.0% | Jurkat viability (%) (T lymphoma Jurkat cells; conc 3.125 uM): 23.1% and 21.1% | Jurkat viability (%) (T lymphoma Jurkat cells; conc 6.25 uM): 20.5% and 21.0% | Jurkat viability (%) (T lymphoma Jurkat cells; conc 12.5 uM): 14.7% and 14.4% | Jurkat viability (%) (T lymphoma Jurkat cells; conc 25 uM): 2.4% and 2.3% | Jurkat viability (%) (T lymphoma Jurkat cells; conc 50 uM): 0.267% and 0.233% | PPI-inducing (binding enhancing) activity between FKBP12 and mTOR compared with rapamycin (1), in words (FKBP12 and mTOR; Fluoppi): relatively weaker activities | EC50 (FKBP12 and mTOR; Fluoppi, HeLa cells, 1 h treatment, three independent biological replicates, read-out: EC50, induction of the formation of FKBP-mTOR complex): 38 nM | Foci intensity (FKBP12 and mTOR; conc 9.53674e-5 uM): 0.01132 and 0.0225 and 0.02884 | Foci intensity (FKBP12 and mTOR; conc 0.000190735 uM): 0.02797 and 0.01973 and 0.01419 | Foci intensity (FKBP12 and mTOR; conc 0.00038147 uM): 0.04487 and 0.01438 and 0.009614 | Foci intensity (FKBP12 and mTOR; conc 0.000762939 uM): 0.009583 and 0.01833 and 0.008004 | Foci intensity (FKBP12 and mTOR; conc 0.00152588 uM): 0.008334 and 0.01713 and 0.01044 | Foci intensity (FKBP12 and mTOR; conc 0.00305176 uM): 0.03307 and 0.01421 and 0.0165 | Foci intensity (FKBP12 and mTOR; conc 0.00610352 uM): 0.02498 and 0.01872 and 0.01859 | Foci intensity (FKBP12 and mTOR; conc 0.012207 uM): 0.05798 and 0.0563 and 0.05141 | Foci intensity (FKBP12 and mTOR; conc 0.0244141 uM): 0.05792 and 0.05718 and 0.05874 | Foci intensity (FKBP12 and mTOR; conc 0.0488281 uM): 0.2264 and 0.3107 and 0.3692 | Foci intensity (FKBP12 and mTOR; conc 0.0976562 uM): 0.3743 and 0.3092 and 0.3931 | Foci intensity (FKBP12 and mTOR; conc 0.195312 uM): 0.3634 and 0.4076 and 0.3212 | Foci intensity (FKBP12 and mTOR; conc 0.390625 uM): 0.4389 and 0.407 and 0.4337 | Foci intensity (FKBP12 and mTOR; conc 0.78125 uM): 0.46 and 0.2978 and 0.3103 | Foci intensity (FKBP12 and mTOR; conc 1.5625 uM): 0.3578 and 0.3604 and 0.4124 | Foci intensity (FKBP12 and mTOR; conc 3.125 uM): 0.4619 and 0.4071 and 0.4306 | Foci intensity (FKBP12 and mTOR; conc 6.25 uM): 0.3337 and 0.3579 and 0.3756 | Foci intensity (FKBP12 and mTOR; conc 12.5 uM): 0.4107 and 0.3542 and 0.4482 | Foci intensity (FKBP12 and mTOR; conc 25 uM): 0.3853 and 0.4351 and 0.4313 | Foci intensity (FKBP12 and mTOR; conc 50 uM): 0.3983 and 0.3475 and 0.366
